Experimental data reported in PubChem BioAssay (NCI).
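A five-concentration, 48-hour dose response in 96-well plates underlies each endpoint, interpolated linearly between surrounding concentrations. TGI denotes the concentration required for complete inhibition of growth.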

How the values were obtained:
Assay in all cases: DTP human tumour cell line panel, 48 h
A549 NSCLC = system: A549 NSCLC
MALME-3M melanoma = system: MALME-3M melanoma
MOLT-4 leukemia = system: MOLT-4 leukemia
NCI-H226 lung = system: NCI-H226 lung
RXF 393 renal = system: RXF 393 renal
SF-295 CNS = system: SF-295 CNS
SW-620 colon = system: SW-620 colon
TK-10 renal = system: TK-10 renal
SR leukemia = system: SR leukemia

Row | Compound | TGI (A549 NSCLC) | TGI (MALME-3M melanoma) | TGI (MOLT-4 leukemia) | TGI (NCI-H226 lung) | TGI (RXF 393 renal) | TGI (SF-295 CNS) | TGI (SW-620 colon) | TGI (TK-10 renal) | TGI (SR leukemia)
1 | CCN(CC)C(=O)CNC(=O)OC(C)(C)C | > 100 µM | > 100 µM | > 100 µM | > 100 µM | > 100 µM | > 100 µM | > 100 µM | > 100 µM | 
2 | COc1cc([C@@H]2c3cc4c(cc3[C@@H](NCc3ccc(C#N)cc3)C3COC(=O)[C@@H]32)OCO4)cc(OC)c1O (stereo partly specified) | 1.54 µM | 4.9 µM | 1.38 µM | 2.26 µM | 21.5 µM | > 100 µM | 3.44 µM | 3.76 µM | 
3 | Cc1[nH]c2ccccc2c1C1CC(=O)NC1=O (stereo unspecified) | > 100 µM | > 100 µM | > 100 µM | > 100 µM | > 100 µM | > 100 µM | > 100 µM | > 100 µM | 
4 | CCC(O)(c1ccc(OC)cc1)C(c1ccc(OCc2ccccc2)cc1)c1ccc(OCc2ccccc2)cc1 (stereo unspecified) | > 100 µM | > 100 µM | > 100 µM | > 100 µM | > 100 µM | > 100 µM | > 100 µM | > 100 µM | > 100 µM
5 | CC(C(=O)c1ccccc1)C1(O)C(=O)Nc2ccccc21 (stereo unspecified) | > 100 µM | > 100 µM | > 100 µM | > 100 µM | > 100 µM | > 100 µM | > 100 µM | > 100 µM | > 100 µM
6 | C/C(=N\NS(=O)(=O)c1ccc(C)cc1)c1c(O)cc(C)oc1=O | > 100 µM | > 100 µM | > 100 µM | > 100 µM |  | > 100 µM | > 100 µM | > 100 µM | > 100 µM
7 | C[C@]12CC(C#N)C(=O)C(O)=C1CC[C@@H]1C2CC[C@@]2(C)C1CC[C@@H]2O (stereo partly specified) | > 100 µM | > 100 µM | > 100 µM | > 100 µM | 44.4 µM | > 100 µM | > 100 µM | > 100 µM | 
8 | NC1=NC(c2ccccc2)CC(c2cc(Cl)cc(Br)c2O)=N1 (stereo unspecified) | 34.6 µM | 15.9 µM | 11.6 µM | 34.3 µM | 17 µM | 23.7 µM | 26.2 µM | 37.3 µM | > 100 µM
9 | O=C(N/C(=C\c1ccc([N+](=O)[O-])cc1)c1nc2ccc(Cl)cc2[nH]1)c1ccccc1 | 74.8 µM | 97.9 µM | 54 µM |  | 58.3 µM | 63.8 µM | 61.3 µM | 88.7 µM | 63.3 µM
10 | CC1Cc2c(N)nc(N3CCOCC3)nc2NC1=O (stereo unspecified) | > 100 µM | > 100 µM | > 100 µM | > 100 µM | > 100 µM | > 100 µM | > 100 µM | > 100 µM | 
11 | CC(C)c1cccc(C(C)C)c1N=C(N)C#N | > 61.1 µM | > 100 µM | > 66 µM | > 100 µM | > 100 µM | > 100 µM | 58.5 µM | > 100 µM | > 90 µM
12 | COC1OC(CBr)C(OC(c2ccccc2)(c2ccccc2)c2ccccc2)C(OC(c2ccccc2)(c2ccccc2)c2ccccc2)C1OC(c1ccccc1)(c1ccccc1)c1ccccc1 (stereo unspecified) | > 100 µM | > 100 µM | > 100 µM | 96.3 µM | > 100 µM | > 100 µM | > 100 µM | > 100 µM | > 100 µM
